{
  "source": "patent US20200179286A1",
  "about": "“CARRIER STRUCTURE AND DRUG CARRIER, AND PREPARING METHODS THEREOF” (GENE'E TECH CO., LTD., priority 2018, published 2020)",
  "tested_on": "H. pylori",
  "assay": "in vitro inhibition of H. pylori suspension (OD450 after 48 hours)",
  "format": "cell-based",
  "settings": "Helicobacter pylori, read-out: minimum inhibitory concentration",
  "protocol": "FIGS. 7 and 8 show the results of the in vitro application of the drug carrier according to some embodiments of this invention. In the in vitro experiment, a suspension of H. pylori was obtained and respectively added with amoxicillin (with a minimum inhibitory concentration of about 0.5 μg/ml and the concentration was fixed at 0.5 μg/ml), samples 1, 5, A and E above. Next, the suspensions of H. pylori, after the addition of amoxicillin and the above samples, were further cultured for 48 hours, the OD450 of the suspension each was measured to determine the effect of inhibiting H. pylori. […] Through this test, it can be clearly seen that both the carrier structure and the drug carrier of the disclosure have the ability to inhibit H. pylori, especially the drug carrier with appropriate active substances has an obvious effect.",
  "data": [
    {"compound": "CC1(C)S[C@@H]2[C@H](NC(=O)[C@H](N)c3ccc(O)cc3)C(=O)N2[C@H]1C(=O)O", "note": "[amoxicillin]", "values": [
      {"measurement": "MIC", "value": "~0.5", "unit": "µg/mL"}
    ]}
  ]
}
